# What was measured:
# rats [1] = assay: MES test, rats p.o.; type: in vivo; conditions: Rattus norvegicus, po
# rats [2] = assay: Preliminary Hippocampal Kindling Screening in rats (i.p.); type: in vivo; conditions: at 100 mg/kg
# C3A hepatocyte cells = assay: ACTIVTox LDH release assay; type: cell-based
# Description: Compounds A, I, H, and F were tested by Stem Cell Innovations, Inc. (Houston, TX) in their ACTIVTox® Human Liver Cell-based assays (using C3A hepatocyte cells). Specifically, the compounds were tested in the LDH release assay, which determines the release of Lactate DeHydrogenase (an indicator of cell death) at various concentrations of test compound.
# A concentration of 100 µM of test compound is a much higher level of exposure to liver cells than would ever be expected under physiological conditions. Therefore, using 100 μM as a standard test concentration (for comparative purposes), the ratio of the absorbance (which measures the level of LDH release) resulting from the presence of the test compound versus the negative control is a value known as the “average (or mean) fold control” (Average Fold Control=Average of Absorbance/Average of Negative Control).
# CYP-450 1A2 = CYP-450 1A2 (Homo sapiens, UniProt P05177); assay: In vitro human CYP-450 study, 1A2; type: in vitro ADME; conditions: human enzyme
# Excerpt: (§1) On the other hand, it is an inhibitor for 2C19, 2D6, 2A6 and 2C9.
# CYP-450 2C19 = CYP-450 2C19 (Homo sapiens, UniProt P33261); assay: In vitro human CYP-450 study, 2C19; type: in vitro ADME; conditions: human enzyme
# Excerpt: as §1
# CYP-450 2D6 = CYP-450 2D6 (Homo sapiens, UniProt P10635); assay: In vitro human CYP-450 study, 2D6; type: in vitro ADME; conditions: human enzyme
# Excerpt: as §1
# [3] = test system: rat dopaminergic N27 cells; assay: N27 protection assay against oxidative stress (H2O2 or MPP+; MTT and LDH); type: cell-based; conditions: drug 24 hours before 200 μM H2O2 or 640 μM MPP+
# Outline: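 Protection mode: N27 cells pretreated with drug at various concentrations for 24 hours, then exposed to 200 μM H2O2 or 640 μM MPP+. Recovery mode: cells damaged by H2O2 first, drug applied afterwards. Viability measured by MTT reduction and cytotoxicity by released LDH.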
# hippocampal neurons = assay: Hippocampal cell loss after pilocarpine-induced SE (FluoroJade B); type: in vivo; conditions: given 30 minutes after the first stage 3 convulsive seizure
# Excerpt: Pilocarpine-induced SE results in marked cell loss in the hippocampus, when compared to the naïve vehicle-treated rats, as evidenced by increased FluoroJade B fluorescence in the dentate gyrus (DG), CA1, and CA3 cell layers.
# [4] = test system: mRNA levels of potential targets; assay: PCR array using real-time PCR (mRNA levels); conditions: mRNA level
# Excerpt: Tables 11 and 12 illustrate PCR array data using real-time PCR to track mRNA levels for various potential targets of compound BX.
# Sequence of CYP-450 2C19 (P33261 whole entry): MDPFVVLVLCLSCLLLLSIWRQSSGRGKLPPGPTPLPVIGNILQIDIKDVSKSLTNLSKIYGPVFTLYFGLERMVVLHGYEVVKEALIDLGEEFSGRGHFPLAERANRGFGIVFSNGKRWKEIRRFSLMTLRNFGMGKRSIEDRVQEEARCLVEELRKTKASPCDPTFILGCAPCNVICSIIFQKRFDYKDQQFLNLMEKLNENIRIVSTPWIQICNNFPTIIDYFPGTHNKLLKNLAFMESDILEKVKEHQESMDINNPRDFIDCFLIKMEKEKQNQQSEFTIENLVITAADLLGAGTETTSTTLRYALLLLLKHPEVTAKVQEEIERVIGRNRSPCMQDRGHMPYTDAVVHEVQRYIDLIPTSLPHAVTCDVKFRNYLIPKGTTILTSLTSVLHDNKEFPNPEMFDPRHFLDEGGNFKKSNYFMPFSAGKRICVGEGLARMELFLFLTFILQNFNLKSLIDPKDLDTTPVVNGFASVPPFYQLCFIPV
# Sequence of CYP-450 2D6 (P10635 whole entry): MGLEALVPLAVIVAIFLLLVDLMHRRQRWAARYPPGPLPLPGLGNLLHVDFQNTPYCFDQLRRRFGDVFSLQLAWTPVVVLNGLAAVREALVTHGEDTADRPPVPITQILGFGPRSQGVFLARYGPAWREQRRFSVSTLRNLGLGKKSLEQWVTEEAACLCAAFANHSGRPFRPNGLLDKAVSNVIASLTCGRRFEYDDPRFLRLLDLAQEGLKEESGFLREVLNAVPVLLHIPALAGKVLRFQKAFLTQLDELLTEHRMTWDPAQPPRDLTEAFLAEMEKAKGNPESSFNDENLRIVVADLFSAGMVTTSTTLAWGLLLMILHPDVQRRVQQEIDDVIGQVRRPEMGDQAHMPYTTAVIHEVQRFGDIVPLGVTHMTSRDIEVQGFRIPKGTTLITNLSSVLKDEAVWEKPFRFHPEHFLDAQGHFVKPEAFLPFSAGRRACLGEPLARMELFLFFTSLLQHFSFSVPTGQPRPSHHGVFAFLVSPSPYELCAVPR
# Sequence of CYP-450 1A2 (P05177 whole entry): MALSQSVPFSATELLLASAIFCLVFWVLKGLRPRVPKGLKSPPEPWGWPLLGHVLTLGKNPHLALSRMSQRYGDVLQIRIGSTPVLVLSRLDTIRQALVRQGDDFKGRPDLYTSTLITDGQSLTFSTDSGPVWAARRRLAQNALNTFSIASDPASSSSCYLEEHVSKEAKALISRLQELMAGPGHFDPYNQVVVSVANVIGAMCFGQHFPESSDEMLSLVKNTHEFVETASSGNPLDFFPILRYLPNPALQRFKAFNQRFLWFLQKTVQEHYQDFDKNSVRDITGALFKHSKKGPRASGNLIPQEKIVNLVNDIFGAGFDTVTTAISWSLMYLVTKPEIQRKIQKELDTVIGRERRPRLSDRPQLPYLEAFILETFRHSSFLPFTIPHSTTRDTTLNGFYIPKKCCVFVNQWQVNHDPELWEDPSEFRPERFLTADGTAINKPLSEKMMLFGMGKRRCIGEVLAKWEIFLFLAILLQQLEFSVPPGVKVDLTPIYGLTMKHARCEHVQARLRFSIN
smiles,measurement,setting,value
"CC(CC(N)=O)c1ccc(OC(F)(F)F)cc1 (racemic) [Compound H, 3-[4-(trifluoromethoxy)-phenyl]butyramide]",ED50,rats [1],56.7 mg/kg
same,"seizure score, Preliminary Hippocampal Kindling Screening",rats [2],zero
same,"LDH release, mean fold control","C3A hepatocyte cells; at 100 μM, C3A hepatocyte cells, value below 1.75 = no cyto- or hepatotoxic activity",1.32
same,"cyto- or hepatotoxicity, ACTIVTox data","C3A hepatocyte cells; at physiologically relevant concentrations (i.e., <100 µM)",not cyto- or hepatotoxic
same,inhibition of CYP-450 1A2,CYP-450 1A2,either no or only a remote possibility of inhibiting
same,inhibition of CYP-450 2C19,CYP-450 2C19,inhibitor
same,inhibition of CYP-450 2D6,CYP-450 2D6,inhibitor
"C[C@H](CC(N)=O)c1ccc(OC(F)(F)F)cc1 (single isomer, unassigned) [Compound BX, R-(−)-3-(4-Trifluoromethoxy-phenyl)butyramide]",neuroprotective effect against H2O2 and MPP+ oxidative stresses (MTT and LDH assays),[3],potent dose-dependent neuroprotective effects
same,rats with partial neuroprotection (CA3 and hilar neurons of DG preserved),hippocampal neurons,2
same,animals with complete neuroprotection of hippocampal neurons against SE-induced cell death,hippocampal neurons; rats,11/15
same,"Fold increase, Als2 (Amyotrophic lateral sclerosis 2 homolog)",[4],109.36
same,"Fold increase, Atp2b2 (ATPase, Ca++ transporting, plasma membrane 2)",[4],−5.85
same,"Fold increase, Bdnf (Brain-derived neurotrophic factor)",[4],2.58
same,"Fold increase, Cat (Catalase)",[4],82.03
same,"Fold increase, Gclc (Glutamate-cysteine ligase, catalytic subunit)",[4],5.79
same,"Fold increase, Htr2a (5-HT (serotonin) receptor 2A)",[4],−3.11
same,"Fold increase, Ldha (Lactate dehydrogenase A)",[4],−9.66
same,"Fold increase, Ntrk2 (Neurotrophic tyrosine kinase, receptor, type 2)",[4],−2.07
same,"Fold increase, P62630 (Aldehyde oxidase 1)",[4],2.1
same,"Fold increase, Prdx2 (Peroxiredoxin 2)",[4],9.66
same,"Fold increase, Psmb5 (Proteasome subunit, beta type 5)",[4],3.02
same,"Fold increase, Slc6a3 (Solute carrier family 6 (DAT), member 3)",[4],−5.59
same,"Fold increase, Snca (Alpha-Synuclein)",[4],−2.14
same,"Fold increase, Syngr3 (Synaptogyrin 3)",[4],2.25
same,"Fold increase, Syt1 (Synaptotagmin I)",[4],2.19
same,"Fold increase, Ubb (Ubiquitin B)",[4],3.23
same,"Fold increase, Ube2k (Ubiquitin-conjugating enzyme E2K)",[4],2.98
